According to ChEMBL document CHEMBL1140113, “Structural requirements for drug inhibition of the liver specific human organic cation transport protein 1” (J Med Chem, 2008):

Tests used:
[1] = target: T1, OCT1 (SLC22A1) (Homo sapiens, UniProt O15245); assay: in vitro
T1 sequence (O15245 whole entry): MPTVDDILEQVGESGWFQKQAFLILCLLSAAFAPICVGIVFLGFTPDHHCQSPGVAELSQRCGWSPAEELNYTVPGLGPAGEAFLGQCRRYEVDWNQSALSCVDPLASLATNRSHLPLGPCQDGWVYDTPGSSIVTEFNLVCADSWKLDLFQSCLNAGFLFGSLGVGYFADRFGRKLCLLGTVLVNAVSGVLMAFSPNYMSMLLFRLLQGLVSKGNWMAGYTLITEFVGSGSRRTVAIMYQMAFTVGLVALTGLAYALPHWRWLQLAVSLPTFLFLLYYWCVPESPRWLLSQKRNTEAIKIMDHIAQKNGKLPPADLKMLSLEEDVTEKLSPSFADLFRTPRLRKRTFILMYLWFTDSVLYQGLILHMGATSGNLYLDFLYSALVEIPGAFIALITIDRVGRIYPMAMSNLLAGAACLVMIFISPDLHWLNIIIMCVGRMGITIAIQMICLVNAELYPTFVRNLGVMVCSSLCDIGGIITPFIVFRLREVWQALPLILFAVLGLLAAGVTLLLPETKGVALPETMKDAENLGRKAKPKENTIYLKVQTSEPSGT

[2] = target: T2, Solute carrier family 22 member 1 (Homo sapiens, UniProt O15245); type: cell-based, HEK293
T2 sequence (O15245 whole entry): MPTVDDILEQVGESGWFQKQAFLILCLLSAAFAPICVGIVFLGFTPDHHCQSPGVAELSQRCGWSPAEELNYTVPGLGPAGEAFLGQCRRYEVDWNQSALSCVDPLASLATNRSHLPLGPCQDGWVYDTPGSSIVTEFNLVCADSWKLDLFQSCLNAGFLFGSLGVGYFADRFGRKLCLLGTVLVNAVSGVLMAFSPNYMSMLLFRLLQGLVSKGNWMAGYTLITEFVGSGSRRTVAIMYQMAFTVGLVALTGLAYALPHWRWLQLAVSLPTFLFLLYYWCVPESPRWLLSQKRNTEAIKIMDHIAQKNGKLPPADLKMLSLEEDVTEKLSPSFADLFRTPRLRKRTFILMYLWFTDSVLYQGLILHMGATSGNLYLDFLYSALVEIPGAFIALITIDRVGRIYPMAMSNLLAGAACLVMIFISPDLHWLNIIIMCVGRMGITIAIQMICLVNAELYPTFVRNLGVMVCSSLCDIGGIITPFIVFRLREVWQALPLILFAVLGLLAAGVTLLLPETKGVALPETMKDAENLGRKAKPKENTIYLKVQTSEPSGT

[3] = target: T1, OCT1 (SLC22A1); assay: Inhibition of 4-(4-(dimethylamino)styryl)-N-methylpyridinium uptake at human OCT1 expressed in HEK293 cells at 10 uM by confocal microscopy; type: cell-based; settings: HEK293 cells that express human OCT1, probe 4-(4-(dimethylamino)styryl)-N-methylpyridinium
[4] = substrate: CC[N+](CC)(CC)CC; assay: not read
[5] = HEK293 cells that express human OCT1, probe 4-(4-(dimethylamino)styryl)-N-methylpyridinium

N=C(N)NC(=O)c1nc(Cl)c(N)nc1N [AMILORIDE]
inhibition at 100 µM [1, 5]: 68.7% | IC50 [2]: 57 µM

CN(C)CCC=C1c2ccccc2CCc2ccccc21 [AMITRIPTYLINE]
inhibition at 100 µM [1, 5]: 78.5% | IC50 [2]: 16.9 µM

COc1cc(NS(C)(=O)=O)ccc1Nc1c2ccccc2nc2ccccc12 [AMSACRINE]
inhibition at 100 µM [1, 5]: 68.4% | IC50 [2]: 5 µM

CN1CCc2cccc3c2[C@H]1Cc1ccc(O)c(O)c1-3 [APOMORPHINE]
inhibition at 100 µM [1, 5]: 69% | IC50 [2]: 20.8 µM

CC(C)(Cc1c[nH]c2ccccc12)NCC(O)COc1ccccc1C#N (centres undefined) [BUCINDOLOL]
inhibition at 100 µM [1, 5]: 84.6% | IC50 [2]: 27.2 µM

CN(C)CCCN1c2ccccc2Sc2ccc(Cl)cc21 [CHLORPROMAZINE]
inhibition at 100 µM [1, 5]: 85.1% | IC50 [2]: 27 µM

CN(C)CC/C=C1/c2ccccc2Sc2ccc(Cl)cc21 [CHLORPROTHIXENE]
inhibition at 100 µM [1, 5]: 65.4% | IC50 [2]: 77.8 µM

CN(C)CCCC1(c2ccc(F)cc2)OCc2cc(C#N)ccc21 (centres undefined) [CITALOPRAM]
inhibition at 100 µM ([1]; hek293): 52% | IC50 [2]: 18.8 µM

CN1CCC[C@@H]1CCO[C@](C)(c1ccccc1)c1ccc(Cl)cc1 [CLEMASTINE]
inhibition at 100 µM [1, 5]: 78.8% | IC50 [2]: 4.9 µM

CN(C)CCCN1c2ccccc2CCc2ccc(Cl)cc21 [CLOMIPRAMINE]
inhibition at 100 µM [1, 5]: 85.3% | IC50 [2]: 19.3 µM

Clc1cccc(Cl)c1N=C1NCCN1 [CLONIDINE]
inhibition at 100 µM ([1]; hek293): 65.4% | IC50 [2]: 22.6 µM

COc1ccc(CCNC[C@H](O)c2ccc(O)cc2)cc1OC [DENOPAMINE]
inhibition at 100 µM ([1]; hek293): 51.5% | IC50 [2]: 46.9 µM

CNCCCN1c2ccccc2CCc2ccccc21 [DESIPRAMINE]
inhibition at 100 µM ([1]; hek293): 84.3% | IC50 [2]: 56.8 µM

COc1ccc([C@@H]2Sc3ccccc3N(CCN(C)C)C(=O)[C@@H]2OC(C)=O)cc1 [DILTIAZEM]
inhibition at 100 µM [1, 5]: 65.5% | IC50 [2]: 12.4 µM

OCCN1CCN(CCCN2c3ccccc3Sc3ccc(C(F)(F)F)cc32)CC1 [FLUPHENAZINE]
inhibition at 100 µM [1, 5]: 61.9% | IC50 [2]: 110 µM

O=C(CCCN1CCC(O)(c2ccc(Cl)cc2)CC1)c1ccc(F)cc1 [HALOPERIDOL]
inhibition at 100 µM [1, 5]: 67.1% | IC50 [2]: 142 µM

CN(C)CCCN1c2ccccc2CCc2ccccc21 [IMIPRAMINE]
inhibition at 100 µM ([1]; hek293): 82.8% | IC50 [2]: 17.1 µM

CN(C)C(=O)C(CCN1CCC(O)(c2ccc(Cl)cc2)CC1)(c1ccccc1)c1ccccc1 [LOPERAMIDE]
inhibition at 100 µM ([1]; hek293): 73.4% | IC50 [2]: 23.7 µM

CC12CC3CC(C)(C1)CC(N)(C3)C2 [MEMANTINE]
inhibition at 100 µM [1, 5]: 58.6% | IC50 [2]: 27.2 µM

C[N+]1(C)CCCC(OC(=O)C(O)(c2ccccc2)c2ccccc2)C1 (centres undefined) [MEPENZOLATE BROMIDE]
inhibition at 100 µM [1, 5]: 59.5% | IC50 [2]: 64.9 µM

CCN(CC)CCNC(=O)c1cc(Cl)c(N)cc1OC [METOCLOPRAMIDE]
inhibition at 100 µM [1, 5]: 52.3% | IC50 [2]: 94.8 µM

CN1CC[C@]23c4c5ccc(O)c4O[C@H]2[C@@H](O)C=C[C@H]3[C@H]1C5 [MORPHINE]
inhibition at 100 µM [1, 5]: 67.9% | IC50 [2]: 28 µM

C[C@]12CC[C@H]3[C@@H](CCC4=CC(=O)CC[C@@H]43)[C@@H]1CC[C@@H]2O [NANDROLONE]
inhibition at 100 µM ([1]; hek293): 79.3% | IC50 [2]: 35.1 µM

Cc1nccn1CC1CCc2c(c3ccccc3n2C)C1=O (centres undefined) [ONDANSETRON]
inhibition at 100 µM ([1]; hek293): 63.8% | IC50 [2]: 20.4 µM

C=CCOc1ccccc1OCC(O)CNC(C)C (centres undefined) [OXPRENOLOL]
inhibition at 100 µM ([1]; hek293): 61.5% | IC50 [2]: 28.6 µM

CC(COc1ccccc1)N(CCCl)Cc1ccccc1 (centres undefined) [PHENOXYBENZAMINE]
inhibition at 100 µM [1, 5]: 56.7% | IC50 [2]: 15.1 µM

COc1cc2nc(N3CCN(C(=O)c4ccco4)CC3)nc(N)c2cc1OC [PRAZOSIN]
inhibition at 100 µM ([1]; hek293): 55.6% | IC50 [2]: 9.9 µM | inhibition at 10 µM [3]: 55.6%

CN1CCN(CCCN2c3ccccc3Sc3ccc(Cl)cc32)CC1 [PROCHLORPERAZINE]
inhibition at 100 µM [1, 5]: 66.5% | IC50 [2]: 49.6 µM

CN(C)CCCN1c2ccccc2Sc2ccccc21 [PROMAZINE]
inhibition at 100 µM [1, 5]: 79.2% | IC50 [2]: 17.2 µM

CC(CN1c2ccccc2Sc2ccccc21)N(C)C (centres undefined) [PROMETHAZINE]
inhibition at 100 µM [1, 5]: 71.1% | IC50 [2]: 35.1 µM

CCCNCC(O)COc1ccccc1C(=O)CCc1ccccc1 (centres undefined) [PROPAFENONE]
inhibition at 100 µM [1, 5]: 83.8% | IC50 [2]: 11.1 µM

CC(C)NCC(O)COc1cccc2ccccc12 (centres undefined) [PROPRANOLOL]
inhibition at 100 µM [1, 5]: 55.4% | IC50 [2]: 63.2 µM

CCOc1cc(CC(=O)N[C@@H](CC(C)C)c2ccccc2N2CCCCC2)ccc1C(=O)O [REPAGLINIDE]
inhibition at 100 µM [1, 5]: 76.4% | IC50 [2]: 9.2 µM

COc1cc2nc(N3CCN(C(=O)C4CCCO4)CC3)nc(N)c2cc1OC (centres undefined) [TERAZOSIN]
inhibition at 100 µM [1, 5]: 77% | IC50 [2]: 23.7 µM

COc1cccc(C2(O)CCCCC2CN(C)C)c1 (centres undefined) [TRAMADOL]
inhibition at 100 µM [1, 5]: 60.2% | IC50 [2]: 52.5 µM

CC(CN(C)C)CN1c2ccccc2CCc2ccccc21 (centres undefined) [TRIMIPRAMINE]
inhibition at 100 µM [1, 5]: 77.2% | IC50 [2]: 27.7 µM

CN[C@H](CC(C)C)C(=O)N[C@H]1C(=O)N[C@@H](CC(N)=O)C(=O)N[C@H]2C(=O)N[C@H]3C(=O)N[C@H](C(=O)N[C@H](C(=O)O)c4cc(O)cc(O)c4-c4cc3ccc4O)[C@H](O)c3ccc(c(Cl)c3)Oc3cc2cc(c3O[C@@H]2O[C@H](CO)[C@@H](O)[C@H](O)[C@H]2O[C@H]2C[C@](C)(N)[C@H](O)[C@H](C)O2)Oc2ccc(cc2Cl)[C@H]1O [VANCOMYCIN]
inhibition at 100 µM [1, 5]: 7.1%

CC[C@]1(O)C[C@@H]2CN(CCc3c([nH]c4ccccc34)[C@@](C(=O)OC)(c3cc4c(cc3OC)N(C)[C@H]3[C@@](O)(C(=O)OC)[C@H](OC(C)=O)[C@]5(CC)C=CCN6CC[C@]43[C@@H]65)C2)C1 [VINBLASTINE]
inhibition at 100 µM [1, 5]: 1.9%

CC(=O)CC(c1ccccc1)c1c(O)c2ccccc2oc1=O (centres undefined) [WARFARIN]
inhibition at 100 µM [1, 5]: 4%

CC(=O)N[C@H]1[C@H]([C@H](O)[C@H](O)CO)OC(C(=O)O)=C[C@@H]1N=C(N)N [ZANAMIVIR]
inhibition at 100 µM [1, 5]: 2%

Cc1cn([C@H]2C[C@H](N=[N+]=[N-])[C@@H](CO)O2)c(=O)[nH]c1=O [ZIDOVUDINE]
inhibition at 100 µM [1, 5]: 4.7%

B1: Solute carrier family 22 member 1 (Homo sapiens) (protein)
chain: MPTVDDILEQVGESGWFQKQAFLILCLLSAAFAPICVGIVFLGFTPDHHCQSPGVAELSQRCGWSPAEELNYTVPGLGPAGEAFLGQCRRYEVDWNQSALSCVDPLASLATNRSHLPLGPCQDGWVYDTPGSSIVTEFNLVCADSWKLDLFQSCLNAGFLFGSLGVGYFADRFGRKLCLLGTVLVNAVSGVLMAFSPNYMSMLLFRLLQGLVSKGNWMAGYTLITEFVGSGSRRTVAIMYQMAFTVGLVALTGLAYALPHWRWLQLAVSLPTFLFLLYYWCVPESPRWLLSQKRNTEAIKIMDHIAQKNGKLPPADLKMLSLEEDVTEKLSPSFADLFRTPRLRKRTFILMYLWFTDSVLYQGLILHMGATSGNLYLDFLYSALVEIPGAFIALITIDRVGRIYPMAMSNLLAGAACLVMIFISPDLHWLNIIIMCVGRMGITIAIQMICLVNAELYPTFVRNLGVMVCSSLCDIGGIITPFIVFRLREVWQALPLILFAVLGLLAAGVTLLLPETKGVALPETMKDAENLGRKAKPKENTIYLKVQTSEPSGT
Km [4]: 2.32 µM
